Laboratory results taken from ChEMBL document CHEMBL1201862, “PubChem BioAssay data set” (2004).
Structures can show the parent of a compound that is named as a salt.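 Exposure lasted 48 hours, with cells grown in 96-well plates and compounds tested at five concentrations. Here, GI50 denotes the concentration required for 50% inhibition of growth.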 Activity calls are given as the source filed them. Rule as the data show it: active = GI50 up to about 1.1 µM and inactive = higher.

Key:
Assay in all cases: growth of human tumour cells (NCI), 48 h
[1] = system: MOLT-4
[2] = system: PC-3
[3] = system: SNB-19
[4] = system: M14
[5] = system: SF-295
[6] = system: HCT-116
[7] = system: COLO 205
[8] = system: OVCAR-8
[9] = system: SR
[10] = system: HOP-62
[11] = system: NCI/ADR-RES
[12] = system: OVCAR-4
[13] = system: SNB-75
[14] = system: SK-OV-3
[15] = system: NCI-H23
[16] = system: RPMI-8226
[17] = system: IGROV-1
[18] = system: SW-620
[19] = system: NCI-H226
[20] = system: EKVX

Row | Structure (SMILES) | GI50 [1] | GI50 [2] | GI50 [3] | GI50 [4] | GI50 [5] | GI50 [6] | GI50 [7] | GI50 [8] | GI50 [9] | GI50 [10] | GI50 [11] | GI50 [12] | GI50 [13] | GI50 [14] | GI50 [15] | GI50 [16] | GI50 [17] | GI50 [18] | GI50 [19] | GI50 [20]
1 | O=Cc1cc2c(cc1-c1c(C=O)ccc3c1OCO3)OCO2 | > 10 µM (inactive) | > 10 µM (inactive) | > 10 µM (inactive) | > 10 µM (inactive) | > 10 µM (inactive) | > 10 µM (inactive) | > 10 µM (inactive) | > 10 µM (inactive) | > 10 µM (inactive) | > 10 µM (inactive) | > 10 µM (inactive) | > 10 µM (inactive) | > 10 µM (inactive) | > 10 µM (inactive) | > 10 µM (inactive) | > 10 µM (inactive) | > 10 µM (inactive) | > 10 µM (inactive) |  | 
2 | Clc1cccc(C2ON=C(c3ccccc3)N2C23CC4CC(CC(C4)C2)C3)c1Cl (stereo not drawn) | > 10 µM (inactive) | 6.41 µM (inactive) | > 10 µM (inactive) | > 10 µM (inactive) | > 10 µM (inactive) | > 10 µM (inactive) | > 10 µM (inactive) | > 10 µM (inactive) |  | > 10 µM (inactive) | > 10 µM (inactive) | > 10 µM (inactive) | > 10 µM (inactive) | > 10 µM (inactive) | > 10 µM (inactive) | > 10 µM (inactive) | > 10 µM (inactive) | > 10 µM (inactive) | > 10 µM (inactive) | > 10 µM (inactive)
3 | O=C1Nc2ccccc2/C1=C\c1c(Cl)nc2n1CCS2 | 30.4 µM (inactive) | 24.5 µM (inactive) | 35.6 µM (inactive) | 33.7 µM (inactive) | 25.2 µM (inactive) | 23.6 µM (inactive) | 17.9 µM (inactive) | 34.4 µM (inactive) |  | 29 µM (inactive) | 23.6 µM (inactive) | 31.5 µM (inactive) | 22.3 µM (inactive) | 19.5 µM (inactive) | 23.7 µM (inactive) | 27.7 µM (inactive) | 32.7 µM (inactive) | 31.3 µM (inactive) |  | 22.9 µM (inactive)
4 | CN(C)c1cccc2c(S(=O)(=O)NCCCNCCN)cccc12 | 18.6 µM (inactive) | 44.2 µM (inactive) | > 100 µM (inactive) | 18.9 µM (inactive) | 55.2 µM (inactive) | 36.2 µM (inactive) | 17.6 µM (inactive) |  | 19.1 µM (inactive) | 67.8 µM (inactive) | > 100 µM (inactive) | 55.2 µM (inactive) | 13.6 µM (inactive) | 46.9 µM (inactive) | 82.4 µM (inactive) |  | 67.9 µM (inactive) | 55.2 µM (inactive) | 64.6 µM (inactive) | > 100 µM (inactive)
5 | N#CSC#CCCC#CSC#N | 2.58 µM (inactive) | 20.9 µM (inactive) | 15.5 µM (inactive) | 12.9 µM (inactive) | 18.3 µM (inactive) | 22.8 µM (inactive) | 12.9 µM (inactive) | 25.4 µM (inactive) | 7.21 µM (inactive) | 19.3 µM (inactive) | 28.2 µM (inactive) | 27.1 µM (inactive) |  | 16.1 µM (inactive) | 20.6 µM (inactive) |  | 20.3 µM (inactive) | 14.2 µM (inactive) | 25.1 µM (inactive) | 17.7 µM (inactive)
6 | C#Cc1cccc(Nc2ncnc3cc(OCCOC)c(OCCOC)cc23)c1 [ERLOTINIB HYDROCHLORIDE] |  | 34.5 µM (inactive) | < 0.01 µM (active) | 6.67 µM (inactive) | 16.2 µM (inactive) | 6.05 µM (inactive) | 4.99 µM (inactive) | 7.23 µM (inactive) |  | 31.3 µM (inactive) | 7.67 µM (inactive) | 27.2 µM (inactive) | 14.8 µM (inactive) | 0.286 µM (active) | 41.7 µM (inactive) | 55.3 µM (inactive) | 0.0857 µM (active) | > 100 µM (inactive) |  | 
7 | Cc1cc(C)c(S(=O)(=O)N[C@@H](/C=C(\Br)CO)C(C)C)c(C)c1 | 24.2 µM (inactive) | 17.2 µM (inactive) | 56 µM (inactive) | 30.5 µM (inactive) | 30.2 µM (inactive) | 33.4 µM (inactive) | 15.8 µM (inactive) | 33.7 µM (inactive) | 25.1 µM (inactive) | 56.5 µM (inactive) | 36.5 µM (inactive) |  | 45 µM (inactive) | 50.5 µM (inactive) | 33 µM (inactive) | 21.6 µM (inactive) | 29.9 µM (inactive) | 27 µM (inactive) |  | 35.6 µM (inactive)
8 | C=CCOC1(CC=C)C(=O)OC2C(O)COC21O (stereo not drawn) | > 100 µM (inactive) | > 100 µM (inactive) | > 100 µM (inactive) | > 100 µM (inactive) | > 100 µM (inactive) | > 100 µM (inactive) | > 100 µM (inactive) | > 100 µM (inactive) | > 100 µM (inactive) | > 100 µM (inactive) | > 100 µM (inactive) | > 100 µM (inactive) |  | > 100 µM (inactive) | > 100 µM (inactive) |  | > 100 µM (inactive) | > 100 µM (inactive) | > 100 µM (inactive) | > 100 µM (inactive)
